Reference: PMC4281105 (Journal of medicinal chemistry, 2014)
In brackets after ≈: the same amount, converted by molar mass. Like-named read-outs stand apart in the source and are kept apart here.

Experiments:
recRSV-luciferase = recRSV-luciferase assay; format: cell-based, respiratory syncytial virus; conditions: luciferase readout
recMeV-luciferase = recMeV-luciferase assay; format: cell-based, measles virus; conditions: luciferase readout, reporter interference control
RSV = assay: viral titer; format: cell-based, human respiratory syncytial virus; conditions: for log reduction at 10 µM: human respiratory syncytial virus, read-out: viral titer reduction at 10 µM
[1] = target: calcium channel, L-type, benzothiazepine (Rattus norvegicus, UniProt P22002); assay: biochemical; conditions: read-out: % Inh.
calcium channel, L-type, benzothiazepine, sequence (P22002 whole entry): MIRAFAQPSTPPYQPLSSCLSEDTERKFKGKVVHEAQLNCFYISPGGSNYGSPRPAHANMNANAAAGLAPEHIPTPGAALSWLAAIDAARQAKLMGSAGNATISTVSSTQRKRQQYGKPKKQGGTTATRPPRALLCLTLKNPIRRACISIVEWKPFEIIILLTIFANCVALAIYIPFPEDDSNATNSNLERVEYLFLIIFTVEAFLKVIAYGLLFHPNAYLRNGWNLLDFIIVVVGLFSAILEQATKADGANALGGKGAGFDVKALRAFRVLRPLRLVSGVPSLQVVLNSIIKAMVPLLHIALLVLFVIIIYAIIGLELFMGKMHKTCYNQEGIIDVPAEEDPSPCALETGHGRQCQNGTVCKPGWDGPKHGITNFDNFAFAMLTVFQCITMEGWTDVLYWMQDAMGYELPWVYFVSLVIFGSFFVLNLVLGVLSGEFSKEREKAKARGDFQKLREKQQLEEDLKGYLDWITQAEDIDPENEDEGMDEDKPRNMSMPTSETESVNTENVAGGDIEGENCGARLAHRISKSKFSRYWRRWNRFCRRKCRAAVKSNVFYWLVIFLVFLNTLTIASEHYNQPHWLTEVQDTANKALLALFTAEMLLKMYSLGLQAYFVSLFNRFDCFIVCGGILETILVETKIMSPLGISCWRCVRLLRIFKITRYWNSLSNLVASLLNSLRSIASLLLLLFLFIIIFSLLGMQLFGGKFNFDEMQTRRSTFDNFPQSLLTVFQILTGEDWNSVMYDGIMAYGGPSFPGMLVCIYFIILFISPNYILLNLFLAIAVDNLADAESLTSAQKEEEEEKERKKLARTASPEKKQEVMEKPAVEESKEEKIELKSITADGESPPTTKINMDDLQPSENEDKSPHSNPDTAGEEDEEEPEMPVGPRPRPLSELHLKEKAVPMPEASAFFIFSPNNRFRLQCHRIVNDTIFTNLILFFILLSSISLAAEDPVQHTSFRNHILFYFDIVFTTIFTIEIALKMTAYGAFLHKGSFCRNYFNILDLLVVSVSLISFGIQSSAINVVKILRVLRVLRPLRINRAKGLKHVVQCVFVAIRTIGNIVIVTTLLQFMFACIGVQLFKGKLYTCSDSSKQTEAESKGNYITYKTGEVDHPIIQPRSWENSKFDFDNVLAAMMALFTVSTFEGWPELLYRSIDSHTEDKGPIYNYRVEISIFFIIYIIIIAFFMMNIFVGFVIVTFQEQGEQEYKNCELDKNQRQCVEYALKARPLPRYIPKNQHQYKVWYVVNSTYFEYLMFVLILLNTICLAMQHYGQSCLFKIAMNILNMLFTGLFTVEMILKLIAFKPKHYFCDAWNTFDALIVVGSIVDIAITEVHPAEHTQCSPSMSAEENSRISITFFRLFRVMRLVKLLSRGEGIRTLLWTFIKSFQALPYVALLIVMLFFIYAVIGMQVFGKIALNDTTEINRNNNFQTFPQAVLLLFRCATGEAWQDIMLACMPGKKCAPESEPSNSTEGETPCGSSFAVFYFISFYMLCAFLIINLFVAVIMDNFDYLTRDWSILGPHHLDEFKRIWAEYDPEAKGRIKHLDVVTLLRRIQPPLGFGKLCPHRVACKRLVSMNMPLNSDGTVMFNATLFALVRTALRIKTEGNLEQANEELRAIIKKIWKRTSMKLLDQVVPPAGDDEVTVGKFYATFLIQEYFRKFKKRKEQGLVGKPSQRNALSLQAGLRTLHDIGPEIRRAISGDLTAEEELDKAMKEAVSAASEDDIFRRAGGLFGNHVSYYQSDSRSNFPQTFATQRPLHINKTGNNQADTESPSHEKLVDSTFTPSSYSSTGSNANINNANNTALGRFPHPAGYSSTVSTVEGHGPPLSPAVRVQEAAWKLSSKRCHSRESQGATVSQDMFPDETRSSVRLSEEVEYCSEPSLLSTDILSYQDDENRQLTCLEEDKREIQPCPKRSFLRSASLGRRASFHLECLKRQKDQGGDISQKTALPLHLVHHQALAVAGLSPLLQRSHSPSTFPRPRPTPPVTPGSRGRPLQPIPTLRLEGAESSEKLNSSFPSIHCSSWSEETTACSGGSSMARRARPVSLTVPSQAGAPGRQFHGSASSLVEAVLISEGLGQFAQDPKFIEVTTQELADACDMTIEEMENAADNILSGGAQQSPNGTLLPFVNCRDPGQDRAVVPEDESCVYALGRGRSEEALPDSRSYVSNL

[2] = target: calcium channel, L-type, dihydropyridine (Rattus norvegicus, UniProt P22002); assay: Panlabs 214600 radioligand binding; conditions: read-out: % Inh.
calcium channel, L-type, dihydropyridine, sequence (P22002 whole entry): as above

hRSV strain Long = assay: hRSV CPE assay; format: cell-based, human respiratory syncytial virus
[3] = not given; remark: listed apart in the source
[4] = for Pe, PAMPA permeability: PBS, no additives
[5] = tested on: Fa2N-4 immortalized human hepatocytes; conditions: read-out: hepatocyte toxicity LC50
[6] = human respiratory syncytial virus, HEp-2, read-out: RSV CPE potency ± standard deviation EC50, HEp-2 cells, hRSV strain Long, 10-point dose response
[7] = read-out: RSV CPE potency ± standard deviation EC50, HEp-2 cells, hRSV strain Long, 10-point dose response

| Compound | log reduction at 10 µM (RSV) | EC50 (hRSV strain Long; [6]) | other results |
| --- | --- | --- | --- |
| COCCCNC(=O)c1ccc(Cn2c(=O)c3ccccc3n(Cc3ccc(C(C)C)cc3)c2=O)cc1 [Compound 19, 4-((1-(4-isopropylbenzyl)-2,4-dioxo-1,2-dihydroquinazolin-3(4H)-yl)methyl)-N-(3-methoxypropyl)benzamide] | 6.7 | 300 ± 30 nM | inhibition of recRSV-luciferase (recRSV-luciferase): efficiently inhibited; activity against recMeV-luciferase (recMeV-luciferase): inactive; inhibition at 10 µM [1]: 52%; inhibition at 10 µM [2]: 70%; EC50 (hRSV strain Long; human respiratory syncytial virus, RSV CPE, as given in abstract): 300 to 500 nM |
| CN(C)c1ccc(Cn2c(=O)n(Cc3ccc(C(=O)NCC4COC4)cc3)c(=O)c3ccccc32)cc1 [Compound 46, 4-((1-(4-(dimethylamino)benzyl)-2,4-dioxo-1,2-dihydroquinazolin-3(4H)-yl)methyl)-N-(oxetan-3-ylmethyl)-benzamide] | – | – | solubility, PBS (kinetic solubility in 1× PBS, pH 7.4): 11.2 µM (≈ 5.58 µg/mL); solubility, media (kinetic solubility in CPE assay media (DMEM/F12, Pen/Strep/Glutamine, 2% heat inactivated FBS)): 18.5 µM (≈ 9.22 µg/mL); viral titer reduction at 10 µM (RSV; compound at 10 µM): >6.2 log; aqueous stability, 1:1 PBS/ACN ([3]; percent parent remaining after 48 h in 1:1 PBS and acetonitrile): 100%; aqueous stability, PBS ([3]; percent parent remaining after 48 h in PBS): 90.2%; passive permeability in words ([4]; at each of 3 pH levels): Moderate to good; Pe, PAMPA permeability ([4]; donor pH 5.0, acceptor pH 7.4): 780 ×10⁻⁶ cm/s; Pe, PAMPA permeability ([4]; donor pH 6.2, acceptor pH 7.4): 686 ×10⁻⁶ cm/s; Pe, PAMPA permeability ([4]; donor pH 7.4, acceptor pH 7.4): 514 ×10⁻⁶ cm/s; CC50 [5]: > 50000 nM; selectivity index (CC50/EC50) (hRSV strain Long; HEp-2 CC50 / RSV CPE EC50): 41.8; EC50 (hRSV strain Long; [7]): 1100 ± 200 nM |
| COCCCNC(=O)c1ccc(Cn2c(=O)c3ccccc3n(Cc3ccc(OC)cc3)c2=O)cc1 [Compound 14, 4-((1-(4-Methoxybenzyl)-2,4-dioxo-1,2-dihydroquinazolin-3(4H)-yl)methyl)-N-(3-methoxypropyl)benzamide] | 2.7 | 2000 ± 900 nM | – |
| CC(C)c1ccc(Cn2c(=O)n(Cc3ccc(C(=O)NCC4COC4)cc3)c(=O)c3ccccc32)cc1 [Compound 44, 4-((1-(4-Isopropylbenzyl)-2,4-dioxo-1,2-dihydroquinazolin-3(4H)-yl)methyl)-N-(oxetan-3-ylmethyl)benzamide] | 5.8 | 400 ± 10 nM | – |
| Cc1ccc(Cn2c(=O)n(Cc3ccc(C(=O)NCC4CCC4)cc3)c(=O)c3ccccc32)cc1 [Compound 30, N-(Cyclobutylmethyl)-4-((1-(4-methylbenzyl)-2,4-dioxo-1,2-dihydroquinazolin-3(4H)-yl)methyl)benzamide] | 1.2 | 1000 ± 80 nM | – |
| CCc1ccc(Cn2c(=O)n(Cc3ccc(C(=O)NCCCOC)cc3)c(=O)c3ccccc32)cc1 [Compound 18, 4-((1-(4-Ethylbenzyl)-2,4-dioxo-1,2-dihydroquinazolin-3(4H)-yl)-methyl)-N-(3-methoxypropyl)benzamide] | 5.9 | 1000 ± 50 nM | – |
| COCCCNC(=O)c1ccc(Cn2c(=O)c3ccccc3n(Cc3ccc(Cl)cc3)c2=O)cc1 [Compound 13, 4-((1-(4-Chlorobenzyl)-2,4-dioxo-1,2-dihydroquinazolin-3(4H)-yl)methyl)-N-(3-methoxypropyl)benzamide] | 3.1 | 6700 ± 1900 nM | – |
| COCCCCNC(=O)c1ccc(Cn2c(=O)c3ccccc3n(Cc3ccc(C)cc3)c2=O)cc1 [Compound 27, N-(4-Methoxybutyl)-4-((1-(4-methylbenzyl)-2,4-dioxo-1,2-dihydroquinazolin-3(4H)-yl)methyl)benzamide] | 2.1 | 800 ± 50 nM | – |
| Cc1ccc(Cn2c(=O)n(Cc3ccc(C(=O)NCC4COC4)cc3)c(=O)c3ccccc32)cc1 [Compound 29, 4-((1-(4-Methylbenzyl)-2,4-dioxo-1,2-dihydroquinazolin-3(4H)-yl)methyl)-N-(oxetan-3-ylmethyl)benzamide] | 5.1 | 700 ± 100 nM | – |
| COCCCNC(=O)c1ccc(Cn2c(=O)c3ccccc3n(Cc3ccc(C)cc3)c2=O)cc1 [Compound 2, N-(3-Methoxypropyl)-4-((1-(4-methylbenzyl)-2,4-dioxo-1,2-dihydroquinazolin-3(4H)-yl)methyl)benzamide] | 4.2 | 2140 nM | EC50 (hRSV strain Long; [7]): 2100 ± 500 nM |
